# Patent US7323480B2, “Substituted triazoles as modulators of PPAR and methods of their preparation” (Metabolex, Inc., priority 2004, dated 2008)
# Where two headings read alike, the source gives them in different places.
# Assays:
# Assay type in all cases: cell-based
# [1] = biological target: T1, mouse PPARγ (Mus musculus, UniProt P37238); assay: PPARγ transactivation (GAL4 chimera luciferase gene activation) assay; conditions: GAL4 DNA binding domain-PPARγ ligand binding domain chimera, pFR-Luc reporter, HEK293T cells, 20 hours incubation
# T1 construct: expressed in transfected cells; host or cells: HEK293T
# T1 sequence (P37238 238-503 limits assumed): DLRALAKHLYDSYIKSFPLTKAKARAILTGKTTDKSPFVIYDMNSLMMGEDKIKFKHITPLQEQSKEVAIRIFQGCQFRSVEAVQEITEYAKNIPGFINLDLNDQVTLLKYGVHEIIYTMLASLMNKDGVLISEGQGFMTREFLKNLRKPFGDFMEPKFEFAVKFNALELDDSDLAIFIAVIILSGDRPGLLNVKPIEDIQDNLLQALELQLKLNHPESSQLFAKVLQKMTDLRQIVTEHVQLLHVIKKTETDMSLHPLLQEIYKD
# From the text: (§1) Measurement of PPARγ, δ, and α Transactivation Activity
# (§2) Chimeric receptors were constructed in which the yeast transcription factor GAL4 DNA binding domain was fused to the ligand binding domain of either mouse PPARγ, mouse PPAR δ or mouse PPAR α in order to assess the ability of the compounds of the present invention to activate gene expression in a PPAR-dependent manner. The chimeric receptor expression plasmids (GAL4-nPPARγ, GAL4-mPPAR δ and GAL4-PPAR α) and the reporter plasmid containing 5×GAL4 binding site (pFR-Luc, obtained from Stratagene) were transfected into HEK293T cells using the Lipofectamine 2000 reagent (Invitrogen), according to the manufacturers instructions. Six hours after transfection, the culture medium was renewed and the cells were incubated for 20 hours in presence of either 1) DMSO (vehicle), 2) a compound of the invention or 3) a reference compound for comparison. Rosiglitazone (obtained from WDF Pharma) was used as a reference compound for the PPARγ assay; GW501516 (prepared as described in Sznaidman et al. Bioorg. Med. Chem. Lett. (2003) 13:1517-1521) was used as a reference compound for the PPAR δ assay and GW7647 (obtained from Sigma) was used as a reference compound for the PPAR α assay. Luciferase activity was measured as a reporter of gene expression. Luciferase activity on the cell lysates using the Steady-Glo reagent was measured according to the manufacturers instructions.
# [2] = biological target: T2, mouse PPAR α (Mus musculus, UniProt P23204); assay: PPAR α transactivation (GAL4 chimera luciferase gene activation) assay; conditions: GAL4 DNA binding domain-PPAR α ligand binding domain chimera, pFR-Luc reporter, HEK293T cells, 20 hours incubation; read-out: Gene Activation Assay: EC50 PPAR alpha
# T2 construct: expressed in transfected cells; host or cells: HEK293T
# T2 sequence (P23204 239-466 limits assumed): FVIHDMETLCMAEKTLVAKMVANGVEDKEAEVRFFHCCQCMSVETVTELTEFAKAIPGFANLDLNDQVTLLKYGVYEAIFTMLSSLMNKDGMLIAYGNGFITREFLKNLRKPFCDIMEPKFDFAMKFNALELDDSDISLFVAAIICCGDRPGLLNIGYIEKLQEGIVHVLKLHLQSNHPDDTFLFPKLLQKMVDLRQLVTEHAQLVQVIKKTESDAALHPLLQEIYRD
# From the text: as §1, §2
# [3] = biological target: T3, mouse PPAR δ (Mus musculus, UniProt P35396); assay: PPAR δ transactivation (GAL4 chimera luciferase gene activation) assay; conditions: GAL4 DNA binding domain-PPAR δ ligand binding domain chimera, pFR-Luc reporter, HEK293T cells, 20 hours incubation; read-out: Gene Activation Assay: EC50 PPAR delta
# T3 construct: expressed in transfected cells; host or cells: HEK293T
# T3 sequence (P35396 210-438 limits assumed): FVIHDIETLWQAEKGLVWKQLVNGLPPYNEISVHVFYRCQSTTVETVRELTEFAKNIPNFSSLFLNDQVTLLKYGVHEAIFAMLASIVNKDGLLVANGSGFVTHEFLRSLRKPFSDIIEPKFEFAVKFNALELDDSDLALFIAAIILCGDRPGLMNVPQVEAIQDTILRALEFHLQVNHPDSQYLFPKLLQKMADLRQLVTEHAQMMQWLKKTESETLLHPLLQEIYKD
# From the text: as §1, §2
# [4] = read-out: Gene Activation Assay: EC50 PPAR gamma
"EC50 [1, 4] [µM]",EC50 [2] [µM],EC50 [3] [µM],EC50 ([1]; read-out: Gene Activation Assay: EC50 PPAR gamma (number printed instead of a symbol)) [µM],SMILES
> 30,> 10,≤ 10,,"Cc1cc(SCc2nn(-c3ccc(C(F)(F)F)cc3)nc2C)ccc1OCC(=O)O [Compound 100, {2-Methyl-4-[5-methyl-2-(4-trifluoromethyl-phenyl)-2H-[1,2,3]triazol-4-ylmethylsulfanyl]-phenoxy}-acetic acid]"
≤ 10,≤ 10,≤ 10,,"Cc1cc(SCc2nn(-c3ccc(C(F)(F)F)cc3)nc2C)ccc1OC(C)C(=O)O (stereo not drawn) [Compound 110, 2-{2-Methyl-4-[5-methyl-2-(4-trifluoromethyl-phenyl)-2H-[1,2,3]triazol-4-ylmethylsulfanyl]-phenoxy}-propionic acid]"
,≤ 10,≤ 10,10,"Cc1cc(SCc2nn(-c3ccc(C(F)(F)F)cc3)nc2C)ccc1OC(C)(C)C(=O)O [Compound 210, 2-Methyl-2-{2-methyl-4-[5-methyl-2-(4-trifluoromethyl-phenyl)-2H-[1,2,3]triazol-4-ylmethylsulfanyl]-phenoxy}-propionic acid]"
> 30,> 10,≤ 10,,"Cc1cc(SCc2nn(-c3ccc(C(F)(F)F)cc3)nc2C(C)C)ccc1OCC(=O)O [Compound 320, {4-[5-Isopropyl-2-(4-trifluoromethyl-phenyl)-2H-[1,2,3]triazol-4-ylmethylsulfanyl]-2-methyl-phenoxy}-acetic acid]"
> 30,≤ 10,≤ 10,,"Cc1cc(SCc2nn(-c3ccc(C(F)(F)F)cc3)nc2-c2ccccc2)ccc1OCC(=O)O [Compound 340, {2-Methyl-4-[5-phenyl-2-(4-trifluoromethyl-phenyl)-2H-[1,2,3]triazol-4-ylmethylsulfanyl]-phenoxy}-acetic acid]"
> 30,> 10,≤ 10,,"Cc1cc(SCc2nn(-c3ccc(C(F)(F)F)cc3)nc2C(F)(F)F)ccc1OCC(=O)O [Compound 360, {2-Methyl-4-[5-trifluoromethyl-2-(4-trifluoromethyl-phenyl)-2H-[1,2,3]triazol-4-ylmethylsulfanyl]-phenoxy}-acetic acid]"
> 10,> 10,≤ 10,,"COc1ccc(-n2nc(C)c(CSc3ccc(OCC(=O)O)c(C)c3)n2)cc1 [Compound 440, {4-[2-(4-Methoxy-phenyl)-5-methyl-2H-[1,2,3]triazol-4-ylmethylsulfanyl]-2-methyl-phenoxy}-acetic acid]"
> 10,≤ 10,≤ 10,,"Cc1cc(SCc2nn(-c3cccc(C(F)(F)F)c3)nc2C)ccc1OCC(=O)O [Compound 480, {2-Methyl-4-[5-methyl-2-(3-trifluoromethyl-phenyl)-2H-[1,2,3]triazol-4-ylmethylsulfanyl]-phenoxy}-acetic acid]"
> 30,≤ 10,≤ 10,,"Cc1cc(SCCc2nn(-c3ccc(C(F)(F)F)cc3)nc2C)ccc1OCC(=O)O [Compound 580, (2-Methyl-4-{2-[5-methyl-2-(4-trifluoromethyl-phenyl)-2H-[1,2,3]triazol-4-yl]-ethylsulfanyl}-phenoxy)-acetic acid]"
> 30,> 10,≤ 10,,"Cc1cc(SCc2nn(-c3ccc(Cl)c(Cl)c3)nc2C)ccc1OCC(=O)O [Compound 640, {4-[2-(3,4-Dichloro-phenyl)-5-methyl-2H-[1,2,3]triazol-4-ylmethylsulfanyl]-2-methyl-phenoxy}-acetic acid]"
> 30,> 30,≤ 10,,"CCCc1cc(CC(=O)O)ccc1OCc1nn(-c2ccc(C(F)(F)F)cc2)nc1C [Compound 660, {3-Propyl-4-[5-methyl-2-(4-trifluoromethyl-phenyl)-2H-[1,2,3]triazol-4-ylmethoxy]-phenyl}-acetic acid]"
> 30,> 10,≤ 10,,Cc1nn(-c2ccc(C(F)(F)F)cc2)nc1COc1ccc(CC(=O)O)cc1 [Compound 670]
